Measurements: patent US20250170248A1, “SMARCA DEGRADERS AND USES THEREOF” (Kymera Therapeutics, Inc., priority 2021, published 2025)

Columns and labels:
Assay type in all cases: cell-based
[1] = target: T1, SMARCA4 (Homo sapiens, UniProt P51532); assay: SMARCA4 Western blot degradation in MV4-11 cells; settings: for SMARCA4 MSD MV411 degradation 24 h: average Dmax % / DC50: MV4-11 cells; for DC50 / Dmax: 24 h; for DC50: read-out: SMARCA4 MSD MV411 degradation 24 h: Mean external-Abs DC50; for Dmax: MV4-11, MV4-11 cells, read-out: SMARCA4 MSD MV411 degradation 24 h: average Dmax %
T1 construct: SMARCA2/SMARCA4 protein degradation selectivity in MV4-11 cells; endogenous in cells; host or cells: MV4-11
Method in brief: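 MV4-11 cells (4×10^6/well) treated with compound for 24 h, lysed in RIPA with protease/phosphatase inhibitors, and SMARCA2, SMARCA4 and beta-actin detected by Western blot with LI-COR readout. Values reported as letter-coded DC50, 24 h Dmax % and SMARCA2/4 selectivity fold.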

[2] = target: T2, SMARCA2 (Homo sapiens, UniProt P51531); assay: MSD SMARCA2 degradation in A549 cell line; settings: for SMARCA2 MSD A549 degradation 24 h: Average Dmax % / DC50: A549 cells; for DC50 / Dmax: 24 h; for DC50: read-out: SMARCA2 MSD A549 degradation 24 h: Average external-Abs DC50; for Dmax: A549, A549 cells
Method: Example 10. MSD SMARCA2 Degradation in A549 Cell Line
Cells were seeded into 96-well plates (A549 cells: 2×10^4 cells/well/100 ul media) and incubated overnight. The next day, 200 nL compound were added into the intermediate plate with Echo (Labcyte 550) from source plate containing a 3-fold serial dilution from top concentration of 1 mM. The culture medium was changed with 8 0ul of fresh medium and 80 μL of 2× compound solution was added into the well to make a final concentration of 1000 nM, 333.3 nM, 111.1 nM, 37.04 nM, 12.35 nM, 4.115 nM, 1.372 nM, 0.457 nM, 0.152 nM and 0 nM (DMSO). The wells were mixed and then incubated for 24 hours. The media was aspirated from the cultures and 60 ul pre-chilled PIPA lysis buffer (Boston BioProducts BP-115D) with protease/phosphatase inhibitor (Roche 05892791001/Roche 04906837001) was added into the well to lyze the cells for 20 minutes at 4° C. The MSD plate (L15XA) was coated with 40 uL cell lysate and incubated at 4° C. overnight. The next day, the plate was washed three times with TBST (CST #9997S), 150 ul/well. The MSD plates was blocked with 150 ul blocking buffer per well and shaked for 1 hr at RT, 600 rpm. The blocking buffer was 3% Blocker A (MSD, R93BA-4) in TBST. The MSD plate was washed three times with 150 uL/well of TBST and 25 ul/well of detection antibody (Rabbit anti-SMARCA2/BRM antibody, 100 μg/mL, ab223735) was added at final concentration of 1 μg/mL diluted in 1% Blocking buffer and shaken for 1 hour at RT, 600 rpm. The MSD plate was washed three times with 150 ul/well of TBST and 25 ul/well of SULFO-TAG anti-rabbit antibody (MSD, R32AB-1) was added at final concentration of 1 μg/ml diluted in 1% Blocking buffer and shaken for 1 hour at RT, 600 rpm. The MSD plate was washed three times with 150 uL/well of TBST and 150 ul/well of 2× MSD reading buffer diluted from 4× (MSD, R92TC-2) with water was added. Lastly, the MSD instrument was read.
The letter codes for SMARCA2 degradation potency (DC50) include: A (<10 nM), B (10-50 nM), C (>50-100 nM), and D (>100 nM). The letter codes for the percentage of SMARCA degradation after 24 hours (Dmax %) include: A (>90% degradation), B (>70-90% degradation), C (50-70% degradation), and D (<50% degradation).

[3] = target: T2, SMARCA2; assay: SMARCA2 Western blot degradation in MV4-11 cells; set-up: SMARCA2/SMARCA4 protein degradation selectivity in MV4-11 cells; endogenous in cells; host or cells: MV4-11; settings: for SMARCA2 MSD MV411 degradation 24 h: average Dmax % / DC50 / Selectivity in MV411: MV4-11 cells; for SMARCA2 MSD MV411 degradation 24 h: average Dmax % / DC50 / Dmax: 24 h; for DC50: read-out: SMARCA2 MSD MV411 degradation 24 h: Mean external-Abs DC50; for Selectivity in MV411: SMARCA2/4 selectivity; for Dmax: MV4-11, MV4-11 cells, read-out: SMARCA2 MSD MV411 degradation 24 h: average Dmax %

T1 sequence (P51532 whole entry): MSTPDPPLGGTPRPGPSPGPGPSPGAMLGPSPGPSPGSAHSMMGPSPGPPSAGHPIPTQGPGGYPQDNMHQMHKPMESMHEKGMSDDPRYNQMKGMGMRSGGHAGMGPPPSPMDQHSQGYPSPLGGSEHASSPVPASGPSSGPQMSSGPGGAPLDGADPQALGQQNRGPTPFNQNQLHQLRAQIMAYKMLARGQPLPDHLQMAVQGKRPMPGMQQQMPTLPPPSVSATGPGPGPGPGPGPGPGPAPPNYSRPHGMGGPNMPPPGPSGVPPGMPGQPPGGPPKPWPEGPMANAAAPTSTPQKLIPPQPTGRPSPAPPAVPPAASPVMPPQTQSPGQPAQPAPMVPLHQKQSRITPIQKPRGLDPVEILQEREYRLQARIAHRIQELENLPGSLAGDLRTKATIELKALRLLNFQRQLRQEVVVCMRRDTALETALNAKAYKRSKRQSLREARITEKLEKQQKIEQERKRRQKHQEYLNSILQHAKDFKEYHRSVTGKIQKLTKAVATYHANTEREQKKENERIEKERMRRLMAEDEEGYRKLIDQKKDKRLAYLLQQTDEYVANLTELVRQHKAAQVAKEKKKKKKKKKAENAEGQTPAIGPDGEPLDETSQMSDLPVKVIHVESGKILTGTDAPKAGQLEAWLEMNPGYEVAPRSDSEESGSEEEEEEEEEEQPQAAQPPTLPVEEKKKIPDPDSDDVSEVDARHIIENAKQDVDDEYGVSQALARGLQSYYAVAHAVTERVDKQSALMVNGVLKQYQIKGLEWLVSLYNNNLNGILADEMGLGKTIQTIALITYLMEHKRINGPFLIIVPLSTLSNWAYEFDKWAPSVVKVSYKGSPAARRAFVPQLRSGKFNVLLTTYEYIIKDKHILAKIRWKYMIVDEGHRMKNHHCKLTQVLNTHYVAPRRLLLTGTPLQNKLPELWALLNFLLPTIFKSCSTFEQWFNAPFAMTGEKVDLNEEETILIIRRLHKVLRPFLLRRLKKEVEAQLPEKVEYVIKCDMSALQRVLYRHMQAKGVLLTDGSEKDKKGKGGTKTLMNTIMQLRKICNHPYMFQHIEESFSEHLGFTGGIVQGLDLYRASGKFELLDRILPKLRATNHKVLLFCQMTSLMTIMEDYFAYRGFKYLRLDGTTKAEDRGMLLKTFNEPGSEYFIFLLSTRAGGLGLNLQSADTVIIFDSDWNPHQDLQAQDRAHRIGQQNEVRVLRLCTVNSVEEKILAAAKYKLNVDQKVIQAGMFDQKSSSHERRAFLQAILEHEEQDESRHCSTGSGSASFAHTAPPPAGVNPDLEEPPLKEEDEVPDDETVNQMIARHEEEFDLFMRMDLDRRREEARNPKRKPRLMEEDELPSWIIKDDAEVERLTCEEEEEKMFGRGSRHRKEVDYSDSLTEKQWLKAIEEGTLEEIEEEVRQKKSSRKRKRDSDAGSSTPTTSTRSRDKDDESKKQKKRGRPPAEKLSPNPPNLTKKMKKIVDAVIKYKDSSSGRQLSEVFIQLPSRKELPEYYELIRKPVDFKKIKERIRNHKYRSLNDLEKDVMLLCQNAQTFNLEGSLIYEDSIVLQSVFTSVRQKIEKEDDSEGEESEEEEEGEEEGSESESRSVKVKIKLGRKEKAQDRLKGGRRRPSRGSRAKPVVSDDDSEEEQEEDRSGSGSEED
T2 sequence (P51531 whole entry): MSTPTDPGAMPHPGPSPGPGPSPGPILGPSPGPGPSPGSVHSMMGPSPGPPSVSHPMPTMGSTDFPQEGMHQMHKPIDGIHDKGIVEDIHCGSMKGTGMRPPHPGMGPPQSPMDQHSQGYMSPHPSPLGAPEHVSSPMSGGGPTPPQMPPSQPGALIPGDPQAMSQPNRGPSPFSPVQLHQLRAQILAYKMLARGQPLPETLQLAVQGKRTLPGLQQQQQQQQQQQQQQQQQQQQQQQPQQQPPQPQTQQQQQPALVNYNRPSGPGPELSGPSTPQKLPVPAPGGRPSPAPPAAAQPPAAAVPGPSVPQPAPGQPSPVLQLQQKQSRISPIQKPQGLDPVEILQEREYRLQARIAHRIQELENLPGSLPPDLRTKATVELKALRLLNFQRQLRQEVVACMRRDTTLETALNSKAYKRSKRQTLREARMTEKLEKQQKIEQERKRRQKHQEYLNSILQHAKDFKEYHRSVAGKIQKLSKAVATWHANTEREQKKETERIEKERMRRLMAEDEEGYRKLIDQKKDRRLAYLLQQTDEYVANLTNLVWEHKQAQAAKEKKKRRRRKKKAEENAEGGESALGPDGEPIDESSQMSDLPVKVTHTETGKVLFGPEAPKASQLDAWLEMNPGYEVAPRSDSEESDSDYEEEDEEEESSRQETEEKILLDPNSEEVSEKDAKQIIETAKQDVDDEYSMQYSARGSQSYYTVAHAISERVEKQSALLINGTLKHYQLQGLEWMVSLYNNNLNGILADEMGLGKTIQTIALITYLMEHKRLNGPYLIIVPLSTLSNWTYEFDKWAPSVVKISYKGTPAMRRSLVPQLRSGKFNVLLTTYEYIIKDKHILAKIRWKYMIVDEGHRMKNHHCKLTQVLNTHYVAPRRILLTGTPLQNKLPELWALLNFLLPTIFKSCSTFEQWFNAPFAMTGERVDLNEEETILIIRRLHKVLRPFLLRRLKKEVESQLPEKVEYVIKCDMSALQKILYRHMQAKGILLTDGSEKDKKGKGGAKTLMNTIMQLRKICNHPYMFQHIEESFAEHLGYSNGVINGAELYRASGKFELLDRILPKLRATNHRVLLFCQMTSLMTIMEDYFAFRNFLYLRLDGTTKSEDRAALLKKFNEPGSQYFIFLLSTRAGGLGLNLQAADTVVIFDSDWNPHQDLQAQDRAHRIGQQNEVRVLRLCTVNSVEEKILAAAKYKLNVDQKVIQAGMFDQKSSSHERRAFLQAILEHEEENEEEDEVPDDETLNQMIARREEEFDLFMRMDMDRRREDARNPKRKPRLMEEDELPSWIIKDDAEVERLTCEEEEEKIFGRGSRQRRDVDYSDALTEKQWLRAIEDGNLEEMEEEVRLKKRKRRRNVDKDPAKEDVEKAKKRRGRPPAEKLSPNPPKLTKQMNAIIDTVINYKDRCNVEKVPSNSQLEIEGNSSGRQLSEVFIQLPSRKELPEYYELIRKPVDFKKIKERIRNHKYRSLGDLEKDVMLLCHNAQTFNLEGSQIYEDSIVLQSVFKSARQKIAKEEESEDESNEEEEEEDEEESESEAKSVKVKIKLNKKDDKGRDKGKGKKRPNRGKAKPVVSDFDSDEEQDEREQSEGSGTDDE

| SMILES | SMARCA4 MSD MV411 degradation 24 h: average Dmax % [1] | DC50 [1] [nM] | SMARCA2 MSD A549 degradation 24 h: Average Dmax % [2] | DC50 [2] [nM] | SMARCA2 MSD MV411 degradation 24 h: average Dmax % [3] | DC50 [3] [nM] | Selectivity in MV411 [3] | Dmax [1] [%] | Dmax [2] [%] | Dmax [3] [%] |
| --- | --- | --- | --- | --- | --- | --- | --- | --- | --- | --- |
| Cc1ncsc1-c1ccc(CNC(=O)[C@@H]2C[C@@H](O)CN2C(=O)[C@@H](NC(=O)[C@H]2CC3(C2)C[C@H](N2CCC(c4ccnc(N5CCN6c7cc(-c8ccccc8O)nnc7NC[C@H]6C5)n4)CC2)C3)C(C)(C)C)cc1 (single isomer, unassigned) [I-27] | D (D (<50% degradation)) | > 100 | B (B (>70-90% degradation)) | 10 to 50 | A (A (>90% degradation)) | 1 to 10 | A (A (>500 fold)) |  |  |  |
| Cc1ncsc1-c1ccc(CNC(=O)[C@@H]2C[C@@H](O)CN2C(=O)[C@@H](NC(=O)[C@H]2CC3(C2)C[C@H](N2CCC(N4CCC(c5ccc6[nH]c7nnc(-c8ccccc8O)cc7c6c5)CC4)CC2)C3)C(C)(C)C)cc1 (single isomer, unassigned) [I-28] |  | > 100 |  | 50 to 100 |  | 10 to 100 | C (C (10-100 fold)) | < 50 | 70 to 90 | 50 to 70 |
| Cc1ncsc1-c1ccc(CNC(=O)[C@@H]2C[C@@H](O)CN2C(=O)[C@@H](NC(=O)C2(F)CC2)C(C)(C)C)c(O[C@H]2CC[C@H](N3CCC(c4cnc(N5CCc6[nH]c7nnc(-c8ccccc8O)cc7c6[C@H]5C)nc4)CC3)CC2)c1 (single isomer, unassigned) [I-30] |  | < 1 |  | < 10 |  | < 1 | D (D (<10 fold)) | > 90 | > 90 | > 90 |
| Cc1ncsc1-c1ccc(CNC(=O)[C@@H]2C[C@@H](O)CN2C(=O)[C@@H](NC(=O)C2(F)CC2)C(C)(C)C)c(OCCN2CCC(c3cnc(N4CCN5c6cc(-c7ccccc7O)nnc6NC[C@H]5C4)nc3)CC2)c1 (single isomer, unassigned) [I-32] |  | 1 to 10 |  | < 10 |  | < 1 | C (C (10-100 fold)) | > 90 | > 90 | > 90 |
| Cc1ncsc1-c1ccc(CNC(=O)[C@@H]2C[C@@H](O)CN2C(=O)[C@@H](NC(=O)C2(F)CC2)C(C)(C)C)c(O[C@H]2CC[C@H](N3CCC(c4cnc(N5CCc6[nH]c7nnc(-c8ccccc8O)cc7c6[C@@H]5C)nc4)CC3)CC2)c1 (single isomer, unassigned) [I-33] |  | > 100 |  | > 100 |  | 10 to 100 | C (C (10-100 fold)) | < 50 | 50 to 70 | 50 to 70 |
| Cc1ncsc1-c1ccc(CNC(=O)[C@@H]2C[C@@H](O)CN2C(=O)[C@@H](NC(=O)C2(F)CC2)C(C)(C)C)c(O[C@H]2CC[C@@H](N3CCC(c4cnc(N5CCc6[nH]c7nnc(-c8ccccc8O)cc7c6[C@@H]5C)nc4)CC3)CC2)c1 (single isomer, unassigned) [I-34] |  | > 100 |  | > 100 |  | 10 to 100 | B (B (>100-500 fold)) | 50 to 70 | 70 to 90 | < 50 |
| C#CCOc1cc(C(C(=O)N2C[C@H](O)C[C@H]2C(=O)NCc2ccc(-c3scnc3C)cc2O[C@H]2CC[C@@H](N3CCC(c4cnc(N5CCc6[nH]c7nnc(-c8ccccc8O)cc7c6[C@H]5C)nc4)CC3)CC2)C(C)C)on1 (single isomer, unassigned) [I-37] |  | < 1 |  | < 10 |  | < 1 | D (D (<10 fold)) | > 90 | > 90 | > 90 |
| Cc1ncsc1-c1ccc(CNC(=O)[C@@H]2C[C@@H](O)CN2C(=O)[C@@H](NC(=O)C2(F)CC2)C(C)(C)C)c(O[C@H]2CC[C@H](N3CCC(N4CCC(c5cnc(N6CCc7[nH]c8nnc(-c9ccccc9O)cc8c7[C@@H]6C)nc5)CC4)CC3)CC2)c1 (single isomer, unassigned) [I-47] |  | 1 to 10 |  | > 100 |  | 1 to 10 | D (D (<10 fold)) | > 90 | > 90 | > 90 |
| Cc1ncsc1-c1ccc(CNC(=O)[C@@H]2C[C@@H](O)CN2C(=O)[C@@H](NC(=O)C2(F)CC2)C(C)(C)C)c(O[C@H]2CC[C@@H](N3CCC(N4CCC(c5cnc(N6CCc7[nH]c8nnc(-c9ccccc9O)cc8c7[C@@H]6C)nc5)CC4)CC3)CC2)c1 (single isomer, unassigned) [I-48] |  | > 100 |  | > 100 |  | 10 to 100 | C (C (10-100 fold)) | > 90 | 70 to 90 | 50 to 70 |

Now from value to compound:

| SMARCA4 MSD MV411 degradation 24 h: average Dmax % [1] | DC50 [1] [nM] | SMARCA2 MSD A549 degradation 24 h: Average Dmax % [2] | DC50 [2] [nM] | SMARCA2 MSD MV411 degradation 24 h: average Dmax % [3] | DC50 [3] [nM] | Selectivity in MV411 [3] | Dmax [1] [%] | Dmax [2] [%] | Dmax [3] [%] | SMILES |
| --- | --- | --- | --- | --- | --- | --- | --- | --- | --- | --- |
| D (D (<50% degradation)) | > 100 | C (C (50-70% degradation)) | > 100 | C (C (50-70% degradation)) | 10 to 100 | B (B (>100-500 fold)) |  |  |  | Cc1ncsc1-c1ccc(CNC(=O)[C@@H]2C[C@@H](O)CN2C(=O)[C@@H](NC(=O)[C@H]2CC3(C2)C[C@H](N2CCC(N4CCC(c5ccc6[nH]c7nnc(-c8ccccc8O)cc7c6c5)CC4)CC2)C3)C(C)(C)C)cc1 (single isomer, unassigned) [I-29] |
|  | > 100 |  | 50 to 100 |  | 10 to 100 | B (B (>100-500 fold)) | 50 to 70 | > 90 | 70 to 90 | Cc1ncsc1-c1ccc(CNC(=O)[C@@H]2C[C@@H](O)CN2C(=O)[C@@H](NC(=O)C2(F)CC2)C(C)(C)C)c(O[C@H]2CC[C@@H](N3CCC(c4cnc(N5CCc6[nH]c7nnc(-c8ccccc8O)cc7c6[C@H]5C)nc4)CC3)CC2)c1 (single isomer, unassigned) [I-31] |
|  | 10 to 100 |  | 10 to 50 |  | < 1 | C (C (10-100 fold)) | > 90 | > 90 | > 90 | C#CCOc1cc(C(C(=O)N2C[C@H](O)C[C@H]2C(=O)NCc2ccc(-c3scnc3C)cc2O[C@H]2CC[C@H](N3CCC(c4cnc(N5CCc6[nH]c7nnc(-c8ccccc8O)cc7c6[C@H]5C)nc4)CC3)CC2)C(C)C)on1 (single isomer, unassigned) [I-38] |
|  | > 100 |  | > 100 |  | 10 to 100 | D (D (<10 fold)) | 70 to 90 | 70 to 90 | 70 to 90 | C#CCOc1cc(C(C(=O)N2C[C@H](O)C[C@H]2C(=O)NCc2ccc(-c3scnc3C)cc2O[C@H]2CC[C@H](N3CCC(c4cnc(N5CCc6[nH]c7nnc(-c8ccccc8O)cc7c6[C@@H]5C)nc4)CC3)CC2)C(C)C)on1 (single isomer, unassigned) [I-40] |
|  | 10 to 100 |  | 50 to 100 |  | < 1 | D (D (<10 fold)) | > 90 | 70 to 90 | > 90 | Cc1ncsc1-c1ccc(CNC(=O)[C@@H]2C[C@@H](O)CN2C(=O)C(c2cc(OCCN3CCC(N4CCC(c5cnc(N6CCc7[nH]c8nnc(-c9ccccc9O)cc8c7[C@@H]6C)nc5)CC4)CC3)no2)C(C)C)cc1 (single isomer, unassigned) [I-41] |
